For 20 compounds, IC50 results are on record in patent US9199979B2, “Thiazolylphenyl-benzenesulfonamido derivatives as kinase inhibitors” (NERVIANO MEDICAL SCIENCES S.R.L., priority 2011, dated 2015).

Broadly, the IC50 is the concentration that inhibits the measured activity by half.

Structures are written as SMILES.

What all share (type): cell-based
The test system of experiment [1] is human melanoma cells A375 (with a mutated B-Raf). Description: In vitro cell proliferation assay, A375. The conditions noted are these: A-375, 72 h treatment, cellular ATP readout. As to the method:
(§1) Exponentially growing human melanoma cells A375 (with a mutated B-Raf) and human melanoma cells Mewo (with wild-type B-Raf) were seeded and incubated at 37° C. in a humidified 5% CO2 atmosphere. After 24 h, scalar doses of the compound were added to the medium and cells incubated for 72 h. At the end of treatment, cells were washed and counted. Cell number was determined by a cellular adenosine triphosphate monitoring system. Cell proliferation was compared to control cells and the concentration inhibiting cell growth by 50% was calculated.

For experiment [2], the system named is human melanoma cells Mewo (with wild-type B-Raf). The experiment in a line: In vitro cell proliferation assay, Mewo. The conditions noted are these: 72 h treatment, cellular ATP readout. As to the method:
as §1

For experiment [3], the system named is p-MAPK (T202/Y204) in A375 human melanoma cells, having a mutated B-Raf. Description: p-MAPK (T202/Y204) ArrayScan assay. The settings on record: A-375, 1.5 or 2 h treatment, p-MAPK staining, read-out: Array Scan A375 IC50. The procedure: A375 human melanoma cells, having a mutated B-Raf, were seeded in 384-well poly-lysine coated plates (Matrix) at a density of 1000 cells/well with appropriate medium supplemented with 10% FCS and incubated for 16-24 h. Cells were treated for 1.5 or 2 h with increasing doses of compounds (starting dose 10 μM, dilution factor 2.5). At the end of the treatment cells were fixed with p-formaldehyde 3.7% for 15-30 min, then washed twice with D-PBS (80 μL/well) and permeabilized with D-PBS containing 0.1% Triton X-100 and 1% BSA (Sigma-Aldrich) for 15 min at room temperature (staining solution). Anti-phospho-MAPK (T202/Y204) monoclonal antibody E10 (Cell Signaling, cat. #9106) diluted 1:100 was added in staining solution and incubated for 1 h at 37° C. After removal of the primary antibody solution, the anti-mouse Cy™ 2-conjugated (Green) secondary antibody (Amersham) diluted 1:500 in staining solution containing 2 μg/mL DAPI was added. The plate was incubated for 1 h at 37° C., washed twice and then read with Cellomics' ArrayScan VTI (4 fields/well, CytoNucTrans algorithm).
The parameter “MEAN_RingAvgIntenCh2”, which measures the mean cytoplasmatic fluorescence intensity associated to p-MAPK staining, is reported as the final result.

For the compound `CN1CCC(c2nc(-c3cccc(NS(=O)(=O)c4cc(F)ccc4F)c3F)c(-c3ccnc(N)c3)s2)CC1` [cmpd. 39, N-{3-[5-(2-aminopyridin-4-yl)-2-(1-methylpiperidin-4-yl)-1,3-thiazol-4-yl]-2-fluorophenyl}-2,5-difluorobenzenesulfonamide], the IC50 in experiment [1] is 27 nM; in experiment [2], over 10 µM.

Consider `CNc1cc(-c2sc(C3CCOCC3)nc2-c2cccc(NS(=O)(=O)c3cc(F)ccc3F)c2F)ccn1` [cmpd. 25, 2,5-difluoro-N-(2-fluoro-3-{5-[2-(methylamino)pyridin-4-yl]-2-(tetrahydro-2H-pyran-4-yl)-1,3-thiazol-4-yl}phenyl)benzenesulfonamide], for which the IC50 in experiment [1] is 32 nM; in experiment [2] it was over 10 µM.

With `CNc1cc(-c2sc(C3CCN(C)CC3)nc2-c2cccc(NS(=O)(=O)c3cc(F)ccc3F)c2F)ccn1` [cmpd. 38, 2,5-difluoro-N-(2-fluoro-3-{5-[2-(methylamino)pyridin-4-yl]-2-(1-methylpiperidin-4-yl)-1,3-thiazol-4-yl}phenyl)benzenesulfonamide], the IC50 in experiment [1] was 47 nM; in experiment [2], over 10 µM.

Consider `Nc1cc(-c2sc(C3CCOCC3)nc2-c2cccc(NS(=O)(=O)c3cc(F)ccc3F)c2F)ccn1` [cmpd. 24, N-{3-[5-(2-aminopyridin-4-yl)-2-(tetrahydro-2H-pyran-4-yl)-1,3-thiazol-4-yl]-2-fluorophenyl}-2,5-difluorobenzenesulfonamide], for which the IC50 was 15 nM in experiment [1] and over 10 µM in experiment [2].

Turning to `CN1CCC(c2nc(-c3cccc(NS(=O)(=O)c4cc(F)ccc4F)c3F)c(-c3ccncc3)s2)CC1` [cmpd. 19, 2,5-difluoro-N-{2-fluoro-3-[2-(1-methylpiperidin-4-yl)-5-(pyridin-4-yl)-1,3-thiazol-4-yl]phenyl}benzenesulfonamide], the values for the concentration for half-maximal inhibition (IC50) in experiment [3], in experiment [1] and in experiment [2] were 2 nM, 40 nM and over 10 µM, respectively.

As for `CCN(CC)c1nc(-c2c(F)ccc(NS(=O)(=O)c3cc(F)ccc3F)c2F)c(-c2ccncc2)s1` [cmpd. 3, N-{3-[2-(diethylamino)-5-(pyridin-4-yl)-1,3-thiazol-4-yl]-2,4-difluorophenyl}-2,5-difluorobenzenesulfonamide], the IC50 is 1 nM in experiment [3], 166 nM in experiment [1] and over 10 µM in experiment [2].

Take `CC(C)(C)c1nc(-c2cccc(NS(=O)(=O)c3cc(F)ccc3F)c2F)c(-c2ccncc2)s1` [cmpd. 43, N-{3-[2-tert-butyl-5-(pyridin-4-yl)-1,3-thiazol-4-yl]-2-fluorophenyl}-2,5-difluorobenzenesulfonamide]: the IC50 in experiment [1] is 12 nM; in experiment [2] it was over 10 µM.

Consider `CC(=O)Nc1cc(-c2sc(C3CCOCC3)nc2-c2cccc(NS(=O)(=O)c3cc(F)ccc3F)c2F)ccn1` [cmpd. 35, N-{4-[4-(3-{[(2,5-difluorophenyl)sulfonyl]amino}-2-fluorophenyl)-2-(tetrahydro-2H-pyran-4-yl)-1,3-thiazol-5-yl]pyridin-2-yl}acetamide], for which the IC50 in experiment [1] is 0.6 nM; in experiment [2] it was over 10 µM.

For `CC(=O)Nc1cc(-c2sc(C3CCN(C4CC4)CC3)nc2-c2cccc(NS(=O)(=O)c3cc(F)ccc3F)c2F)ccn1` [cmpd. 30, N-{4-[2-(1-cyclopropylpiperidin-4-yl)-4-(3-{[(2,5-difluorophenyl)sulfonyl]amino}-2-fluorophenyl)-1,3-thiazol-5-yl]pyridin-2-yl}acetamide], the half-maximal inhibitory concentration (IC50) in experiment [1] was 3 nM; in experiment [2], over 10 µM.

For `CC(=O)Nc1cc(-c2sc(C3CCN(C)CC3)nc2-c2cccc(NS(=O)(=O)c3cc(F)ccc3F)c2F)ccn1` [cmpd. 23, N-{4-[4-(3-{[(2,5-difluorophenyl)sulfonyl]amino}-2-fluorophenyl)-2-(1-methylpiperidin-4-yl)-1,3-thiazol-5-yl]pyridin-2-yl}acetamide], the half-inhibitory concentration (IC50) in experiment [1] was 6 nM; in experiment [2] it was over 10 µM.

With `CNc1cc(-c2sc(C3CCN(C4CC4)CC3)nc2-c2cccc(NS(=O)(=O)c3cc(F)ccc3F)c2F)ccn1` [cmpd. 37, N-(3-{2-(1-cyclopropylpiperidin-4-yl)-5-[2-(methylamino)pyridin-4-yl]-1,3-thiazol-4-yl}-2-fluorophenyl)-2,5-difluorobenzenesulfonamide], the results for the concentration for half-maximal inhibition (IC50) in experiment [1] and in experiment [2] were 92 nM and over 10 µM, respectively.

Take `CC(=O)NCCNc1cc(-c2sc(C3CCOCC3)nc2-c2cccc(NS(=O)(=O)c3cc(F)ccc3F)c2F)ccn1` [cmpd. 36, N-[2-({4-[4-(3-{[(2,5-difluorophenyl)sulfonyl]amino}-2-fluorophenyl)-2-(tetrahydro-2H-pyran-4-yl)-1,3-thiazol-5-yl]pyridin-2-yl}amino)ethyl]acetamide]: the IC50 is 69 nM in experiment [1] and over 10 µM in experiment [2].

Consider `CC(=O)Nc1cc(-c2sc(C(C)(C)C)nc2-c2cccc(NS(=O)(=O)c3cc(F)ccc3F)c2F)ccn1` [cmpd. 42, N-{4-[2-tert-butyl-4-(3-{[(2,5-difluorophenyl)sulfonyl]amino}-2-fluorophenyl)-1,3-thiazol-5-yl]pyridin-2-yl}acetamide], for which the results for the half-inhibitory concentration (IC50) in experiment [1] and in experiment [2] were 0.6 nM and over 10 µM, respectively.

In the case of `O=S(=O)(Nc1cccc(-c2nc(C3CCN(C4CC4)CC3)sc2-c2ccncc2)c1F)c1cc(F)ccc1F` [cmpd. 21, N-{3-[2-(1-cyclopropylpiperidin-4-yl)-5-(pyridin-4-yl)-1,3-thiazol-4-yl]-2-fluorophenyl}-2,5-difluorobenzenesulfonamide], the figures for the half-inhibitory concentration (IC50) in experiment [1] and in experiment [2] were 23 nM and over 10 µM, respectively.

Turning to `O=S(=O)(Nc1cccc(-c2nc(C3CCOCC3)sc2-c2ccncc2)c1F)c1cc(F)ccc1F` [cmpd. 20, 2,5-difluoro-N-{2-fluoro-3-[5-(pyridin-4-yl)-2-(tetrahydro-2H-pyran-4-yl)-1,3-thiazol-4-yl]phenyl}benzenesulfonamide], the half-inhibitory concentration (IC50) in experiment [3] was 2 nM; in experiment [1], 78 nM; in experiment [2], over 10 µM.

Take `O=S(=O)(Nc1ccc(F)c(-c2nc(N3CCC(F)(F)CC3)sc2-c2ccncc2)c1F)c1cc(F)ccc1F` [cmpd. 14, N-{3-[2-(4,4-difluoropiperidin-1-yl)-5-(pyridin-4-yl)-1,3-thiazol-4-yl]-2,4-difluorophenyl}-2,5-difluorobenzenesulfonamide]: the IC50 is 4 nM in experiment [3], 66 nM in experiment [1] and over 10 µM in experiment [2].

Take `O=S(=O)(Nc1cccc(-c2nc(N3CCC(F)(F)CC3)sc2-c2ccncc2)c1F)c1cc(F)ccc1F` [cmpd. 18, N-{3-[2-(4,4-difluoropiperidin-1-yl)-5-(pyridin-4-yl)-1,3-thiazol-4-yl]-2-fluorophenyl}-2,5-difluorobenzenesulfonamide]: the IC50 in experiment [3] is 2 nM; in experiment [1] it was 127 nM; in experiment [2], over 10 µM.

On to `COC(=O)N[C@@H](C)CNc1cc(-c2sc(C3CCOCC3)nc2-c2cccc(NS(=O)(=O)c3cc(F)ccc3F)c2F)ccn1` [cmpd. 41, Methyl [(2S)-1-({4-[4-(3-{[(2,5-difluorophenyl)sulfonyl]amino}-2-fluorophenyl)-2-(tetrahydro-2H-pyran-4-yl)-1,3-thiazol-5-yl]pyridin-2-yl}amino)propan-2-yl]carbamate], for which the 50% inhibitory concentration (IC50) was 8 nM in experiment [1] and over 10 µM in experiment [2].

For the compound `Nc1cc(-c2sc(C3CCN(C4CC4)CC3)nc2-c2cccc(NS(=O)(=O)c3cc(F)ccc3F)c2F)ccn1` [cmpd. 22, N-{3-[5-(2-aminopyridin-4-yl)-2-(1-cyclopropylpiperidin-4-yl)-1,3-thiazol-4-yl]-2-fluorophenyl}-2,5-difluorobenzenesulfonamide], the figures for the IC50 in experiment [1] and in experiment [2] were 27 nM and over 10 µM, respectively.

On to `CC(=O)Nc1cc(-c2sc(C3CCNCC3)nc2-c2cccc(NS(=O)(=O)c3cc(F)ccc3F)c2F)ccn1` [cmpd. 44, N-{4-[4-(3-{[(2,5-difluorophenyl)sulfonyl]amino}-2-fluorophenyl)-2-(piperidin-4-yl)-1,3-thiazol-5-yl]pyridin-2-yl}acetamide], for which the IC50 in experiment [1] is 40 nM; in experiment [2] it was over 10 µM.
